Experimental data taken from PMC10364322, “Evaluation of chronic drug-induced electrophysiological and cytotoxic effects using human-induced pluripotent stem cell-derived cardiomyocytes (hiPSC-CMs)” (Frontiers in Pharmacology, 2023).
Where two headings read alike, the source gives them in different places.

Tested on: hiPSC-CMs (iCell-Cardiomyocytes^2)
Summary of the method: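 Monolayers of hiPSC-CMs on fibronectin-coated MEA plates, 50 K/well, kept at 37°C, 5% CO2; compounds added in 0.1% final DMSO after 5-min baseline. Field potential and impedance parameters expressed as mean ± SD percent change from baseline; arrhythmic events noted; cytotoxicity fluorescence normalized to DMSO, Kruskal-Wallis.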

COc1nc(N)nc2c1ncn2[C@@H]1O[C@H](COP(=O)(N[C@@H](C)C(=O)OCC(C)(C)C)Oc2cccc3ccccc23)[C@@H](O)[C@@]1(C)O (stereo partly shown) [BMS-986094]
BR (beating rate), % change from baseline (0.3 µM, 2h): 5±3% | Beating below threshold, number of observations/total well numbers (0.3 µM, 2h): 0/5 | Cessation of beating, number of observations/total well numbers (0.3 µM, 2h): 0/5 | EAD, number of observations/total well numbers (0.3 µM, 2h): 0/5 | FPD (field-potential duration), % change from baseline (0.3 µM, 2h): 0.5±1% | FPDc (field-potential duration corrected by beat-rate), % change from baseline (0.3 µM, 2h): 2.1±1.1% | Flat T-wave-like, number of observations/total well numbers (0.3 µM, 2h): 0/5 | BR (beating rate), % change from baseline (0.3 µM, 24h): 8±3% | Beating below threshold, number of observations/total well numbers (0.3 µM, 24h): 0/5 | Cessation of beating, number of observations/total well numbers (0.3 µM, 24h): 0/5 | EAD, number of observations/total well numbers (0.3 µM, 24h): 0/5 | FPD (field-potential duration), % change from baseline (0.3 µM, 24h): -5.3±4.1% | FPDc (field-potential duration corrected by beat-rate), % change from baseline (0.3 µM, 24h): -2.7±3.8% | Flat T-wave-like, number of observations/total well numbers (0.3 µM, 24h): 0/5 | BR (beating rate), % change from baseline (0.3 µM, 48h): 14±5% | Beating below threshold, number of observations/total well numbers (0.3 µM, 48h): 0/5 | Cessation of beating, number of observations/total well numbers (0.3 µM, 48h): 0/5 | EAD, number of observations/total well numbers (0.3 µM, 48h): 0/5 | FPD (field-potential duration), % change from baseline (0.3 µM, 48h): -12.4±4.7% | FPDc (field-potential duration corrected by beat-rate), % change from baseline (0.3 µM, 48h): -8.4±4.1% | Flat T-wave-like, number of observations/total well numbers (0.3 µM, 48h): 0/5 | BR (beating rate), % change from baseline (0.3 µM, 72h): 22±3 % | Beating below threshold, number of observations/total well numbers (0.3 µM, 72h): 0/5 | Cessation of beating, number of observations/total well numbers (0.3 µM, 72h): 0/5 | EAD, number of observations/total well numbers (0.3 µM, 72h): 0/5 | FPD (field-potential duration), % change from baseline (0.3 µM, 72h): -17.3±3.6 % | FPDc (field-potential duration corrected by beat-rate), % change from baseline (0.3 µM, 72h): -11.6±3.5 % | Flat T-wave-like, number of observations/total well numbers (0.3 µM, 72h): 0/5 | BR (beating rate), % change from baseline (0.3 µM, 96h): 30±11 % | Beating below threshold, number of observations/total well numbers (0.3 µM, 96h): 0/5 | Cessation of beating, number of observations/total well numbers (0.3 µM, 96h): 0/5 | EAD, number of observations/total well numbers (0.3 µM, 96h): 0/5 | FPD (field-potential duration), % change from baseline (0.3 µM, 96h): -20.4±2.9 % | FPDc (field-potential duration corrected by beat-rate), % change from baseline (0.3 µM, 96h): -14.3±1.9 % | Flat T-wave-like, number of observations/total well numbers (0.3 µM, 96h): 1/5 | BR (beating rate), % change from baseline (1 µM, 2h): 6±2% | Beating below threshold, number of observations/total well numbers (1 µM, 2h): 0/5 | Cessation of beating, number of observations/total well numbers (1 µM, 2h): 0/5 | EAD, number of observations/total well numbers (1 µM, 2h): 0/5 | FPD (field-potential duration), % change from baseline (1 µM, 2h): -3.6±2.3% | FPDc (field-potential duration corrected by beat-rate), % change from baseline (1 µM, 2h): -1.8±2.1% | Flat T-wave-like, number of observations/total well numbers (1 µM, 2h): 1/5 | BR (beating rate), % change from baseline (1 µM, 24h): 17±5% | Beating below threshold, number of observations/total well numbers (1 µM, 24h): 0/5 | Cessation of beating, number of observations/total well numbers (1 µM, 24h): 0/5 | EAD, number of observations/total well numbers (1 µM, 24h): 0/5 | FPD (field-potential duration), % change from baseline (1 µM, 24h): -10.7±2.3 % | FPDc (field-potential duration corrected by beat-rate), % change from baseline (1 µM, 24h): -6±2.7% | Flat T-wave-like, number of observations/total well numbers (1 µM, 24h): 0/5 | BR (beating rate), % change from baseline (1 µM, 48h): 12±3% | Beating below threshold, number of observations/total well numbers (1 µM, 48h): 0/5 | Cessation of beating, number of observations/total well numbers (1 µM, 48h): 0/5 | EAD, number of observations/total well numbers (1 µM, 48h): 0/5 | FPD (field-potential duration), % change from baseline (1 µM, 48h): -5.8±3 % | FPDc (field-potential duration corrected by beat-rate), % change from baseline (1 µM, 48h): -2.5±2.1 % | Flat T-wave-like, number of observations/total well numbers (1 µM, 48h): 3/5 | BR (beating rate), % change from baseline (1 µM, 72h): 17±6 % | Beating below threshold, number of observations/total well numbers (1 µM, 72h): 0/5 | Cessation of beating, number of observations/total well numbers (1 µM, 72h): 0/5 | EAD, number of observations/total well numbers (1 µM, 72h): 0/5 | FPD (field-potential duration), % change from baseline (1 µM, 72h): -7.5±0 % | FPDc (field-potential duration corrected by beat-rate), % change from baseline (1 µM, 72h): -2.3±0% | Flat T-wave-like, number of observations/total well numbers (1 µM, 72h): 4/5 | BR (beating rate), % change from baseline (1 µM, 96h): 14±8 % | Beating below threshold, number of observations/total well numbers (1 µM, 96h): 0/5 | Cessation of beating, number of observations/total well numbers (1 µM, 96h): 0/5 | EAD, number of observations/total well numbers (1 µM, 96h): 0/5 | FPD (field-potential duration), % change from baseline (1 µM, 96h): -7.9±0 % | FPDc (field-potential duration corrected by beat-rate), % change from baseline (1 µM, 96h): -5.5±0 % | Flat T-wave-like, number of observations/total well numbers (1 µM, 96h): 4/5 | BR (beating rate), % change from baseline (3 µM, 72h): 12±6 % | Beating below threshold, number of observations/total well numbers (3 µM, 72h): 0/5 | Cessation of beating, number of observations/total well numbers (3 µM, 72h): 0/5 | EAD, number of observations/total well numbers (3 µM, 72h): 0/5 | Flat T-wave-like, number of observations/total well numbers (3 µM, 72h): 5/5 | BR (beating rate), % change from baseline (3 µM, 96h): 20±12 % | Beating below threshold, number of observations/total well numbers (3 µM, 96h): 0/5 | Cessation of beating, number of observations/total well numbers (3 µM, 96h): 1/5 | EAD, number of observations/total well numbers (3 µM, 96h): 0/5 | Flat T-wave-like, number of observations/total well numbers (3 µM, 96h): 4/5 | BR (beating rate), % change from baseline (3 µM, 2h): 7±1% | Beating below threshold, number of observations/total well numbers (3 µM, 2h): 0/5 | Cessation of beating, number of observations/total well numbers (3 µM, 2h): 0/5 | EAD, number of observations/total well numbers (3 µM, 2h): 0/5 | FPD (field-potential duration), % change from baseline (3 µM, 2h): -3.6±1.9% | FPDc (field-potential duration corrected by beat-rate), % change from baseline (3 µM, 2h): -1.6±1.8% | Flat T-wave-like, number of observations/total well numbers (3 µM, 2h): 0/5 | BR (beating rate), % change from baseline (3 µM, 24h): 20±3 % | Beating below threshold, number of observations/total well numbers (3 µM, 24h): 0/5 | Cessation of beating, number of observations/total well numbers (3 µM, 24h): 0/5 | EAD, number of observations/total well numbers (3 µM, 24h): 0/5 | FPD (field-potential duration), % change from baseline (3 µM, 24h): -17±4.9 % | FPDc (field-potential duration corrected by beat-rate), % change from baseline (3 µM, 24h): -11.8±5.5 % | Flat T-wave-like, number of observations/total well numbers (3 µM, 24h): 0/5 | BR (beating rate), % change from baseline (3 µM, 48h): 13±3% | Beating below threshold, number of observations/total well numbers (3 µM, 48h): 0/5 | Cessation of beating, number of observations/total well numbers (3 µM, 48h): 0/5 | EAD, number of observations/total well numbers (3 µM, 48h): 0/5 | FPD (field-potential duration), % change from baseline (3 µM, 48h): -0.5±0% | FPDc (field-potential duration corrected by beat-rate), % change from baseline (3 µM, 48h): 2.6±0% | Flat T-wave-like, number of observations/total well numbers (3 µM, 48h): 4/5 | BR (beating rate), % change from baseline (10 µM, 2h): 4±8% | Beating below threshold, number of observations/total well numbers (10 µM, 2h): 0/5 | Cessation of beating, number of observations/total well numbers (10 µM, 2h): 0/5 | EAD, number of observations/total well numbers (10 µM, 2h): 0/5 | FPD (field-potential duration), % change from baseline (10 µM, 2h): -5.7±2.3% | FPDc (field-potential duration corrected by beat-rate), % change from baseline (10 µM, 2h): -4.4±2.8 % | Flat T-wave-like, number of observations/total well numbers (10 µM, 2h): 0/5 | BR (beating rate), % change from baseline (10 µM, 24h): 30±4 % | Beating below threshold, number of observations/total well numbers (10 µM, 24h): 0/5 | Cessation of beating, number of observations/total well numbers (10 µM, 24h): 0/5 | EAD, number of observations/total well numbers (10 µM, 24h): 0/5 | FPD (field-potential duration), % change from baseline (10 µM, 24h): -24.2±3.7 % | FPDc (field-potential duration corrected by beat-rate), % change from baseline (10 µM, 24h): -17.1±3.6 % | Flat T-wave-like, number of observations/total well numbers (10 µM, 24h): 1/5 | BR (beating rate), % change from baseline (10 µM, 48h): 24±6 % | Beating below threshold, number of observations/total well numbers (10 µM, 48h): 0/5 | Cessation of beating, number of observations/total well numbers (10 µM, 48h): 0/5 | EAD, number of observations/total well numbers (10 µM, 48h): 0/5 | FPD (field-potential duration), % change from baseline (10 µM, 48h): -10.6±0 % | FPDc (field-potential duration corrected by beat-rate), % change from baseline (10 µM, 48h): -2.4±0 % | Flat T-wave-like, number of observations/total well numbers (10 µM, 48h): 4/5 | BR (beating rate), % change from baseline (10 µM, 72h): 32±14 % | Beating below threshold, number of observations/total well numbers (10 µM, 72h): 0/5 | Cessation of beating, number of observations/total well numbers (10 µM, 72h): 0/5 | EAD, number of observations/total well numbers (10 µM, 72h): 0/5 | Flat T-wave-like, number of observations/total well numbers (10 µM, 72h): 5/5 | BR (beating rate), % change from baseline (10 µM, 96h): 29±0 % | Beating below threshold, number of observations/total well numbers (10 µM, 96h): 1/5 | Cessation of beating, number of observations/total well numbers (10 µM, 96h): 3/5 | EAD, number of observations/total well numbers (10 µM, 96h): 0/5 | Flat T-wave-like, number of observations/total well numbers (10 µM, 96h): 1/5 | T-wave morphology (72 h and 96 h, two highest concentrations (10 and 1 µM)): flattening of the T-wave
